The values that follow come from patent publication US20230127898A1, “HEPATITIS B CAPSID ASSEMBLY MODULATORS” (Venatorx Pharmaceuticals, Inc., priority 2020, published 2023).

Series [1] relates to HBV replication in HepAD38 cells. Nature of the series: In vitro antiviral assay: extracellular HBV DNA by QPCR in HepAD38 cells. Format: cell-based, HBV (genotype D, serotype ayw). Conditions: Hepatitis B virus, 168 h, 7 days incubation, read-out: Anti-HBV EC50. On the procedure: The anti-HBV activity of the Capsid Assembly Modulators (CAMs) was evaluated in a cell based assay utilizing the human hepatoma cell line HepAD38 (Ladner, S K., et al., 1998). HepAD38 cells were derived from the parental line, HepG2, that were stably transfected with a construct containing an HBV genome (genotype D, serotype ayw) under the control of a tetracycline repressible CMV promoter. Upon removal of tetracycline, viral pre-genomic RNA (pgRNA) and mRNAs are expressed and infectious viral particles are assembled and secreted into the culture medium providing a reliable, robust system to measure multiple steps of the HBV life cycle. Disruption of capsid formation results in reduced levels of DNA-containing virus particles that are released into the culture supernatant. To quantify the effect of CAMs on HBV replication, we developed a sensitive QPCR-based assay that measures extracellular HBV DNA levels upon treatment of HepAD38 cells with various concentrations of test compounds.
HepAD38 cells were maintained in DMEM/F12 medium containing 10% FBS, 400 μg/mL G418 and 0.3 μg/mL tetracycline (tet+media) to maintain repression of HBV replication. To evaluate each compound, HepAD38 cells were seeded into 24-well collagen coated culture plates (Corning BioCoat) at a density of 200,000 cells per well in 1 mL of medium without tetracycline (tet-media) and allowed to adhere overnight at 37° C., 5% CO2 in a humidified incubator. The following day, media was refreshed and a dose range of each compound was prepared by performing 1 log10 serial dilutions in 100% DMSO at 200×the desired assay concentration. Dilutions were then added to the cells resulting in a final dose range of 1 μM to 10 pM and the plates were returned to the incubator. Following 7 days of incubation, culture supernatants were harvested and HBV DNA levels were evaluated by QPCR and compared to the vehicle treated control wells (i.e. DMSO alone).
To quantify HBV DNA levels, cell culture supernatants were diluted 1:10 in sterile, nuclease-free water (Gibco). The diluted supernatants were subsequently added to a PCR master mix containing 1×Roche Light Cycler Master Mix, 0.5 μM forward primer, 0.5 μM reverse primer, 0.2 μM Roche Universal Probe Library Probe 25. The volume was brought to 20 μL with nuclease-free water and amplification of the HBV target sequence was performed using a Roche LightCycler 480 QPCR instrument. PCR extended out to 45 cycles with each cycle consisting of a denaturation step at 95° C. for 10 sec., followed by an annealing step at 60° C. for 10 sec. and a brief extension step at 72° C. for 1 sec.
Extracellular HBV DNA levels, expressed in copies/mL, were determined by comparison to a standard curve (10^2-10^9 copies/mL) using the Roche LightCycler analysis software. These values were subsequently converted to percent inhibition of HBV replication by dividing the HBV DNA levels in the experimental samples with those obtained from the vehicle control (˜1-2×10^5 copies/mL). Potency, expressed as an EC50(the effective concentration required to inhibit 50% of HBV replication), was calculated from the dose-response curve using a 4-parameter non-linear regression analysis (GraphPad Prism). The nucleoside analog inhibitor entecavir was used as a positive control to validate each assay run. The EC50 value of entecavir in the HepAD38 assay was 0.5 nM, as previously reported in the literature.

The nature of series [2]: In vitro cytotoxicity assay (MTT cell viability) in HepG2 cells. Format: cell-based. The note with it: human. How it is done:
To evaluate antiviral selectivity, the cytotoxic activity of each compound was determined using a standard cell viability assay performed on the parental HepG2 cell line. Cell viability was determined by measuring the conversion of 3-(4,5-dimethylthiazol-2-yl)-2,5-diphenyltetrazolium bromide (MTT) to the insoluble formazan salt crystal that occurs in live cells. Briefly, HepG2 cells were seeded in 96-well plates at a density of 20,000 cells per well in EMEM+10% FBS (complete growth medium) and allowed to adhere overnight in a 37° C., 5% CO2 humidified incubator. The next day, test agents were prepared by performing 8 half-log10 serial dilutions in 100% DMSO at 200×the final desired concentration in the assay. Compounds were tested over a range of concentrations from 30 μM to 1.0 nM in the assay. HepG2 cells were incubated in the presence of various concentrations of CAMs for 7 days in a 37° C., 5% CO2 humidified incubator. At the completion of the 7-day incubation period, MTT reagent was added to each well and the mixture was incubated for an additional 3-4 hours. At the completion of the incubation period, all wells were aspirated to remove the culture medium. The formazan crystals were solubilized from the cell monolayers with 100% DMSO. Plates were briefly mixed on an orbital shaker and absorbance was measured at 492 nm using a Perkin-Elmer EnVision multi-label plate reader. All absorbance values were converted to a percentage of the signal obtained from the vehicle treated controls. Absorbance values at 492 nm are directly proportional to the number of viable cells present in the sample. A CC50 value (cytotoxic concentration that results in loss of 50% cell viability) was calculated from the dose-response curve by 4-parameter, non-linear regression analysis using the GraphPad Prism software. The positive control compound, staurosporine, reduced the viability of HepG2 cells in a dose-dependent manner (CC50=100 nM).

The next series deals with HBV. Conditions: Phase 1b clinical trial, 600 mg bid dosing for 29 days; cited from earlier work.

The structures appear in SMILES notation. pEC50: −log10 of the molar value. Some results are limits rather than exact numbers.

Turning to `Cc1c2c(c(C(=O)Nc3ccc(F)c(F)c3)n1C)CCC(C)NC2=O` (stereo not drawn) [Example 48, N-(3,4-difluorophenyl)-2,3,6-trimethyl-4-oxo-2,4,5,6,7,8-hexahydropyrrolo[3,4-c]azepine-1-carboxamide], the negative-log EC50 (pEC50) in series [1] is 6.00 to 6.30. For the same compound, the CC50 at 7 days in series [2] is over 30000 nM. Consider `O=C(Nc1cc(F)c(F)c(F)c1)c1ccc(F)c(S(=O)(=O)N2CCC(O)CC2)c1` [NVR 3-778], for which the “reduction in HBV DNA” value in the series on HBV is −1.7 log 10.

One may read the pEC50 as the EC50 on a negative log10 scale, so that one unit is a factor of ten. By CC50 is commonly meant the concentration that lowers cell viability or growth by half.
